Key:
[1] = target: human emopamil binding protein and human 7-dehydrocholesterol reductase co-expressing cell membrane (Homo sapiens (Human), UniProt Q15125); test: hEBP-DHCR7 radioligand filtration binding assay with [3H]-Compound 118A*; details: radioligand [3H]-Compound 118A*; HEK293 membrane co-expressing hEBP and DHCR7
Outline: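 HEK293 membranes transiently co-expressing hEBP and hDHCR7 (10 μg/well) were incubated with [3H]-Compound 118A* (added at 25 nM) and compounds (8 doses, final 0.06–5000 nM, n=2) for 3 h at 22 °C. Bound radioactivity was read after PEI-treated GF/B filtration. IC50 came from a Hill fit of % inhibition and was converted to Ki.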

[2] = test system: zymostenol accumulation in EpiSC-derived OPCs (EBP); test: GC/MS-based sterol profiling, zymostenol accumulation; assay type: cell-based, mouse; details: Mus musculus, 24 h, 8 doses from 0.15 nM to 333 nM, read-out: mZymo GCMS EC50
Outline: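 EpiSC-derived mouse OPCs plated at 100,000 cells/well in N2B27 without growth factors and treated 24 h. Sterols extracted, silylated with BSTFA and measured by GC/MS (EI, full scan), quantified against cholesterol-d7. Zymostenol normalized to levels after 24 h with 100 nM positive control reference.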

EpiSC-derived OPCs = test: In vitro phenotypic screening of OPCs, MBP high-content imaging; assay type: cell-based, mouse; details: Mus musculus, 72 h, percentage of MBP+ oligodendrocytes; 3 days; 0.5 nM to 1000 nM; read-out: mOPC EC50
Outline: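 Mouse EpiSC-derived OPCs seeded without growth factors and exposed 3 days at 37° C. to 8-point doses, 1000 nM to 0.5 nM final. Fixed cells stained for MBP and DAPI; high-content imaging gave percentage MBP+ oligodendrocytes, with EC50 from Hill-equation fit.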

Sequence of human emopamil binding protein and human 7-dehydrocholesterol reductase co-expressing cell membrane (Q15125 whole entry): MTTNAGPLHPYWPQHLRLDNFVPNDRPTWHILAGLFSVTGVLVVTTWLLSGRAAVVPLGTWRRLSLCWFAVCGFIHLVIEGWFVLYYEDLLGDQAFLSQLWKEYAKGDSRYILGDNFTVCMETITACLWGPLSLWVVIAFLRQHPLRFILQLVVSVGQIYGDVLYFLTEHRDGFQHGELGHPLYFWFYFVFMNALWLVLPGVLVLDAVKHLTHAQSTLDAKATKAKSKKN

Ki [1] [nM] | EC50 [2] [nM] | EC50 (EpiSC-derived OPCs) [nM] | SMILES
8.31 | 2.5 | 20 | CC(Cc1ccc(C2CC2(C)C)cc1)CN1CCC2(C1)CS(=O)(=O)C2 (racemic) [Compound 102]
28.9 | 2.3 | 6.8 | O=S1(=O)CC2(CCN(CCOc3ccc(F)cc3F)CC2)C1 [Example 204, 7-(2-(2,4-Difluorophenoxy)ethyl)-2-thia-7-azaspiro[3.5]nonane 2,2-dioxide]
14.7 | 42 | 220 | O=S1(=O)CC2(CCN(CC3(Oc4ccc(C(F)(F)F)cc4)CCCC3)CC2)C1 [Example 202, 7-((1-(4-(Trifluoromethyl)phenoxy)cyclopentyl)methyl)-2-thia-7-azaspiro[3.5]nonane 2,2-dioxide]
13.9 | 9.9 | 45 | CC(C)(CN1CC2(CCS(=O)(=O)CC2)C1)Oc1ccc(C(F)(F)F)cc1 [Example 209, 2-(2-Methyl-2-(4-(trifluoromethyl)phenoxy)propyl)-7-thia-2-azaspiro[3.5]nonane 7,7-dioxide]
39.6 | 8.3 | 26 | C[C@H](Cc1ccc(C(F)(F)F)nc1)CN1CCC2(CC1)CS(=O)(=O)C2 (single isomer, unassigned) [Compound 217]
7.31 | 0.32 | 0.9 | CC(C)(CN1CCC2(CC1)CS(=O)(=O)C2)Oc1ccc(Cl)c(F)c1 [Compound 231, 7-(2-(4-Chloro-3-fluorophenoxy)-2-methylpropyl)-2-thia-7-azaspiro[3.5]nonane 2,2-dioxide]
31.6 | 25.6 | 74.1 | O=S1(=O)CC2(CCN(CCOc3cnc([C@H]4CCC[C@@H](C(F)(F)F)C4)nc3)CC2)C1 (relative stereo) [Compound 248B, 7-(2-((2-((cis)-3-(trifluoromethyl)cyclohexyl)pyrimidin-5-yl)oxy)ethyl)-2-thia-7-azaspiro[3.5]nonane 2,2-dioxide]
15.6 | 1.5 | 10 | O=S1(=O)CC2(CCN(CC[C@@H](F)c3ccc(C(F)(F)F)cc3)C2)C1 (single isomer, unassigned) [Compound 122A]
24.6 | 1.6 | 6.3 | CC(C)(Cc1cncc(C(F)(F)F)c1)CN1CCC2(C1)CS(=O)(=O)C2 [Example 149, 6-(2,2-Dimethyl-3-(5-(trifluoromethyl)pyridin-3-yl)propyl)-2-thia-6-azaspiro[3.4]octane-2,2-dioxide]
9.86 | 0.35 | 0.46 | C[C@H](Cc1ccc(C2CCC(F)(F)CC2)c(Cl)c1)CN1CCC2(C1)CS(=O)(=O)C2 (single isomer, unassigned) [117B*]
12.2 | 1.26 | 2.62 | O=S1(=O)CC2(CCN(CCOc3cnc([C@H]4CC[C@H](C(F)(F)F)CC4)c(Cl)c3)CC2)C1 [Compound 246, 7-(2-((5-Chloro-6-((trans)-4-(trifluoromethyl)cyclohexyl)pyridin-3-yl)oxy)ethyl)-2-thia-7-azaspiro[3.5]nonane 2,2-dioxide]
14.9 | 24.4 | 94.8 | O=S1(=O)CC2(CCN(CCOc3cnc([C@H]4CCC[C@H](C(F)(F)F)C4)nc3)CC2)C1 (relative stereo) [Compound 248A, 7-(2-((2-((trans)-3-(Trifluoromethyl)cyclohexyl)pyrimidin-5-yl)oxy)ethyl)-2-thia-7-azaspiro[3.5]nonane 2,2-dioxide]
19.7 | 6.1 | 19.9 | CC(C)n1nc(C(F)(F)F)cc1C[C@@H](C)CN1CCC2(C1)CS(=O)(=O)C2 (single isomer, unassigned) [235A*]
15.3 | 3.2 | 7.6 | C[C@@H](CN1CCC2(CC1)CS(=O)(=O)C2)Oc1ccc(C(F)(F)F)cc1 (single isomer, unassigned) [227A*]
21.3 | 13 | 15 | CC(C)(CN1CCC2(C1)CS(=O)(=O)C2)Oc1cccc(F)c1 [Example 127, 6-(2-(3-Fluorophenoxy)-2-methylpropyl)-2-thia-6-azaspiro[3.4]octane-2,2-dioxide]
23.6 | 4.9 | 31 | CC(C)(Cc1ccc(C(F)(F)F)nc1)CN1CC[C@]2(CCS(=O)(=O)C2)C1 (single isomer, unassigned) [Compound 148A]
3.7 | 3.7 | 16 | O=S1(=O)CC2(CCN(CC3(Oc4ccc(C(F)(F)F)cc4)CCC3)CC2)C1 [Compound 222, 7-((1-(4-(Trifluoromethyl)phenoxy)cyclobutyl)methyl)-2-thia-7-azaspiro[3.5]nonane 2,2-dioxide]
12.7 | 5.7 | 15 | C[C@@H](Cc1ccc(C(F)(F)F)cc1)CN1CC2(CCS(=O)(=O)CC2)C1 (single isomer, unassigned) [232B*]
13.5 | 15 | 29 | C[C@@H](CN1CCC2(C1)CS(=O)(=O)C2)Oc1ccc(C(F)(F)F)cc1 (single isomer, unassigned) [115B*]
110 | 34 | 135 | O=S1(=O)CC2(CCN(CCOc3ccc(F)cn3)CC2)C1 [Compound 229, 7-(2-((5-Fluoropyridin-2-yl)oxy)ethyl)-2-thia-7-azaspiro[3.5]nonane 2,2-dioxide]
7.27 | 0.52 | 0.72 | C[C@@H](Cc1ccc(OC(F)(F)F)cc1)CN1CCC2(C1)CS(=O)(=O)C2 (single isomer, unassigned) [119A*]

SMILES | Ki [1] [nM] | EC50 [2] [nM] | EC50 (EpiSC-derived OPCs) [nM]
C[C@H](Cc1ccc(C(F)(F)F)nc1)CN1CCC2(C1)CS(=O)(=O)C2 (single isomer, unassigned) [118B*] | 50.5 | 54 | 140

— patent US20240400579A1, “SPIROCYCLIC MODULATORS OF CHOLESTEROL BIOSYNTHESIS AND THEIR USE FOR PROMOTING REMYELINATION” (GENENTECH, INC., priority 2021, published 2024)
